# Source: patent US10865216B2, “Tricyclic Gyrase inhibitors” (MERCK SHARP & DOHME CORP., priority 2012, dated 2020)
# Tested on: E. coli ATCC 25922
# Assay: MIC, E. coli ATCC 25922
# Type: cell-based
# Settings: E. coli; Alamar Blue read after overnight incubation at 35° C.
row,SMILES,MIC Ec [µg/mL]
1,CNc1cc(F)cc2c1[nH]c1nc(Oc3cncc(C#N)c3)nc(N3CC(N)C4(CC4)C3)c12 (centres unmarked) [Compound 4.051],2
2,CNc1cc(F)cc2c1[nH]c1nc(Oc3cnc(C)nc3)nc(N3CC(N)C4(CC4)C3)c12 (centres unmarked) [Compound 4.065],≤0.5
3,CNc1cc(F)cc2c1[nH]c1nc(Oc3cnc(C)nc3)nc(N3CC4CC(N)C3C4)c12 (centres unmarked) [Compound 4.148],4
4,CNc1cc(F)cc2c1[nH]c1nc(Oc3cnc(C)nc3)nc(N3CC(C)C(CN)C3)c12 (centres unmarked) [Compound 4.087],1
5,CNc1cc(F)cc2c1[nH]c1nc(Oc3cnc4cccnc4c3)nc(N3CC4NCCOC4C3)c12 (centres unmarked) [Compound 4.048],1
6,Cc1cccc2c1[nH]c1nc(Sc3cnc4nccnc4c3)nc(N3CC4C(N)C4C3)c12 (centres unmarked) [Compound 1.07],>32
7,CNc1cc(F)cc2c1[nH]c1nc(Oc3cnc(C)nc3)nc(N(C)C3CNC3)c12 [Compound 4.134],>16
8,CNc1cc(F)cc2c1[nH]c1nc(Oc3cncnc3)nc(N3CC(N)CC3C)c12 (centres unmarked) [Compound 4.029],16
9,CCc1ncc(Oc2nc(N3CC(N)C4(CC4)C3)c3c(n2)[nH]c2c(NC)cc(F)cc23)cn1 (centres unmarked) [Compound 4.259],≤0.5
10,CNc1cc(F)cc2c1[nH]c1nc(Oc3cnc(C)nc3)nc(N3CC(N)C3)c12 [Compound 4.138],≤0.5
11,CNc1cc(F)cc2c1[nH]c1nc(Oc3cnc(C)nc3)nc(N3CCCC(C)(N)C3)c12 (centres unmarked) [Compound 4.088],1
12,CNc1cc(F)cc2c1[nH]c1nc(Oc3cncc(C)c3)nc(N3CC4CC(N)C4C3)c12 (centres unmarked) [Compound 4.303],≤0.5
13,CNc1cc(F)cc2c1[nH]c1nc(Oc3cnc(C)nc3)nc(-c3ccc(Cl)cc3N)c12 [Compound 4.161],≤0.5
14,CNc1cc(F)cc2c1[nH]c1nc(Oc3cnc(C)nc3)nc(N3CC4(CCC4N)C3)c12 (centres unmarked) [Compound 4.100],≤0.5
15,CNc1cc(F)cc2c1[nH]c1nc(Oc3cnc(SC)nc3)nc(N3CC4C(N)C4C3)c12 (centres unmarked) [Compound 4.193],≤0.5
16,CNc1cc(F)cc2c1[nH]c1nc(Oc3cnc(SC)nc3)nc(N3CCC4(CC4N)C3)c12 (centres unmarked) [Compound 4.195],1
17,NC1CCN(c2nc(Sc3cnc4nccnc4c3)nc3[nH]c4ccccc4c23)C1 (centres unmarked) [Compound 1.06],>64
18,CNc1cc(F)cc2c1[nH]c1nc(Oc3cnc(C)nc3)nc(N3CCCC(N)CC3)c12 (centres unmarked) [Compound 4.071],2
19,CNc1cc(F)cc2c1[nH]c1nc(Oc3cnc(C)nc3)nc(N3CC4(CCCNC4)C3)c12 [Compound 4.149],2
20,CNc1cc(F)cc2c1[nH]c1nc(Oc3ccc4sc(C)nc4c3)nc(N3CC4CCC(N)C4C3)c12 (centres unmarked) [Compound 4.322],≤0.5
21,CNc1cc(F)cc2c1[nH]c1nc(Oc3cncc(OC)c3)nc(N3CC4C(N)C4C3)c12 (centres unmarked) [Compound 4.164],1
22,CNc1cc(F)cc2c1[nH]c1nc(Oc3cnc(C)nc3)nc(N3CCC(N)C(C)(C)C3)c12 (centres unmarked) [Compound 4.152],1
23,CNc1cc(F)cc2c1[nH]c1nc(Oc3cnc(C)nc3)nc(N3CC4NCCOC4C3)c12 (centres unmarked) [Compound 4.114],2
24,CNc1cc(F)cc2c1[nH]c1nc(Oc3cnc(SC)nc3)nc(N3CC4(CC[C@H]4N)C3)c12 [Compound 4.202],≤0.5
25,CNc1cc(F)cc2c1[nH]c1nc(Oc3cncc(-c4nnn(C)n4)c3)nc(N3CC4C(N)C4C3)c12 (centres unmarked) [Compound 4.210],1
26,CNc1cc(F)cc2c1[nH]c1nc(Oc3cnc(C)nc3)nc(N3CC4CONC4C3)c12 (centres unmarked) [Compound 4.122],1

# Same assay, conditions: Escherichia coli, ATCC25922, E. coli; Alamar Blue read after overnight incubation at 35° C.; read-out: MIC Ec
row,SMILES,MIC [µg/mL]
1,CNc1cccc2c1[nH]c1nc(Oc3cnc(C)nc3)cc(N3CCC4(CC4N)C3)c12 (centres unmarked) [Compound 3.42],2
2,Cc1ncc(Oc2nc(N3C[C@H](N)C4(CC4)C3)c3c(n2)[nH]c2c(N(C)C(=O)[C@H](C)N)cc(F)cc23)cn1 [Compound 4.423],> 16

# Tested on: S. aureus ATCC 13709
# Assay: MIC, S. aureus ATCC 13709
# Type: cell-based
# Settings: S. aureus; Alamar Blue read after overnight incubation at 35° C.
row,SMILES,MIC Sa [µg/mL]
1,CNc1cc(F)cc2c1[nH]c1nc(Oc3cncc(C#N)c3)nc(N3CC(N)C4(CC4)C3)c12 (centres unmarked) [Compound 4.051],≤0.5
2,CNc1cc(F)cc2c1[nH]c1nc(Oc3cnc(C)nc3)nc(N3CC(N)C4(CC4)C3)c12 (centres unmarked) [Compound 4.065],≤0.5
3,CNc1cc(F)cc2c1[nH]c1nc(Oc3cnc(C)nc3)nc(N3CC4CC(N)C3C4)c12 (centres unmarked) [Compound 4.148],≤0.5
4,CNc1cc(F)cc2c1[nH]c1nc(Oc3cnc(C)nc3)nc(N3CC(C)C(CN)C3)c12 (centres unmarked) [Compound 4.087],≤0.5
5,CNc1cc(F)cc2c1[nH]c1nc(Oc3cnc4cccnc4c3)nc(N3CC4NCCOC4C3)c12 (centres unmarked) [Compound 4.048],≤0.5
6,Cc1cccc2c1[nH]c1nc(Sc3cnc4nccnc4c3)nc(N3CC4C(N)C4C3)c12 (centres unmarked) [Compound 1.07],4
7,CNc1cc(F)cc2c1[nH]c1nc(Oc3cnc(C)nc3)nc(N(C)C3CNC3)c12 [Compound 4.134],>16
8,CNc1cc(F)cc2c1[nH]c1nc(Oc3cncnc3)nc(N3CC(N)CC3C)c12 (centres unmarked) [Compound 4.029],4
9,CCc1ncc(Oc2nc(N3CC(N)C4(CC4)C3)c3c(n2)[nH]c2c(NC)cc(F)cc23)cn1 (centres unmarked) [Compound 4.259],≤0.5
10,CNc1cc(F)cc2c1[nH]c1nc(Oc3cnc(C)nc3)nc(N3CC(N)C3)c12 [Compound 4.138],≤0.5
11,CNc1cc(F)cc2c1[nH]c1nc(Oc3cnc(C)nc3)nc(N3CCCC(C)(N)C3)c12 (centres unmarked) [Compound 4.088],≤0.5
12,CNc1cc(F)cc2c1[nH]c1nc(Oc3cncc(C)c3)nc(N3CC4CC(N)C4C3)c12 (centres unmarked) [Compound 4.303],≤0.5
13,CNc1cc(F)cc2c1[nH]c1nc(Oc3cnc(C)nc3)nc(-c3ccc(Cl)cc3N)c12 [Compound 4.161],≤0.5
14,CNc1cc(F)cc2c1[nH]c1nc(Oc3cnc(C)nc3)nc(N3CC4(CCC4N)C3)c12 (centres unmarked) [Compound 4.100],≤0.5
15,CNc1cc(F)cc2c1[nH]c1nc(Oc3cnc(SC)nc3)nc(N3CC4C(N)C4C3)c12 (centres unmarked) [Compound 4.193],≤0.5
16,CNc1cc(F)cc2c1[nH]c1nc(Oc3cnc(SC)nc3)nc(N3CCC4(CC4N)C3)c12 (centres unmarked) [Compound 4.195],≤0.5
17,NC1CCN(c2nc(Sc3cnc4nccnc4c3)nc3[nH]c4ccccc4c23)C1 (centres unmarked) [Compound 1.06],32
18,CNc1cc(F)cc2c1[nH]c1nc(Oc3cnc(C)nc3)nc(N3CCCC(N)CC3)c12 (centres unmarked) [Compound 4.071],≤0.5
19,CNc1cc(F)cc2c1[nH]c1nc(Oc3cnc(C)nc3)nc(N3CC4(CCCNC4)C3)c12 [Compound 4.149],≤0.5
20,CNc1cc(F)cc2c1[nH]c1nc(Oc3ccc4sc(C)nc4c3)nc(N3CC4CCC(N)C4C3)c12 (centres unmarked) [Compound 4.322],≤0.5
21,CNc1cc(F)cc2c1[nH]c1nc(Oc3cncc(OC)c3)nc(N3CC4C(N)C4C3)c12 (centres unmarked) [Compound 4.164],≤0.5
22,CNc1cc(F)cc2c1[nH]c1nc(Oc3cnc(C)nc3)nc(N3CCC(N)C(C)(C)C3)c12 (centres unmarked) [Compound 4.152],≤0.5
23,CNc1cc(F)cc2c1[nH]c1nc(Oc3cnc(C)nc3)nc(N3CC4NCCOC4C3)c12 (centres unmarked) [Compound 4.114],≤0.5
24,CNc1cc(F)cc2c1[nH]c1nc(Oc3cnc(SC)nc3)nc(N3CC4(CC[C@H]4N)C3)c12 [Compound 4.202],≤0.5
25,CNc1cc(F)cc2c1[nH]c1nc(Oc3cncc(-c4nnn(C)n4)c3)nc(N3CC4C(N)C4C3)c12 (centres unmarked) [Compound 4.210],≤0.5
26,CNc1cc(F)cc2c1[nH]c1nc(Oc3cnc(C)nc3)nc(N3CC4CONC4C3)c12 (centres unmarked) [Compound 4.122],≤0.5

# Same assay, conditions: Staphylococcus aureus, ATCC13709, S. aureus; Alamar Blue read after overnight incubation at 35° C.; read-out: MIC Sa
row,SMILES,MIC [µg/mL]
1,CNc1cccc2c1[nH]c1nc(Oc3cnc(C)nc3)cc(N3CCC4(CC4N)C3)c12 (centres unmarked) [Compound 3.42],≤ 0.5
2,Cc1ncc(Oc2nc(N3C[C@H](N)C4(CC4)C3)c3c(n2)[nH]c2c(N(C)C(=O)[C@H](C)N)cc(F)cc23)cn1 [Compound 4.423],> 16
